The values that follow come from US5229419A, “Chemotherapeutically active acetogenins” (Purdue Research Foundation, priority 1992, dated 1993).

One data set deals with 3PS lymphocytic leukemia. To be noted: 0.0125 mg/kg; cited from earlier work.
In data set [1] the test system is 9KB (human nasopharyngeal carcinoma). To be noted: cited from earlier work.
Data set [2] deals with 9PS (murine lymphocytic leukemia). To be noted: cited from earlier work.
For a further data set, the system named is stripped cucumber beetle. The note with it: cited from earlier work.
For another data set, the system named is Mexican bean beetle. To be noted: cited from earlier work.
The test system of another data set is mosquito larvae. To be noted: cited from earlier work.
Another data set deals with blow fly larvae. The note with it: cited from earlier work.
The subject of another data set is melon aphid. To be noted: cited from earlier work.
A further data set has as its system two spotted spider mites. The note with it: cited from earlier work.
For data set [3], the system named is free-living nematode, Caenorabditis elegans. To be noted: cited from earlier work.
A further data set relates to mice. To be noted: cited from earlier work.
In data set [4] the test system is brine shrimp (Artemia salina Leach). Briefly: whole plant or invertebrate. To be noted: 24 hrs, read-out: BST LC50. Format: in vivo. The method, then: The extracts, fractions, and isolated compounds were routinely evaluated for lethality to brine shrimp larvae (BST). The LC50 of brine shrimp (Artemia salina Leach) was determined by substantially the same method described by Meyer et al. [Planta Med., 45: 31-34 (1982)]. The test sample was dissolved in solvent and added to 2-dram vials in an amount to provide 1000, 100, 10, 1, etc. p.p.m. of material in the final brine preparation, assuming complete miscibility in the brine. The vials were dried in vacuo, and artificial sea water, prepared from a commercial salt mixture, was added. Ten brine shrimp larva (nauplii), 48-72 hrs. old, were introduced to the vial, and the volume was made up to 5 ml. with the sea water. After 24 hrs., the percent mortality was computed. Subsequently, LC50 values and 95% confidence limits were calculated by a Finney probit analysis to permit comparison of potencies of extracts and fractions.
(§1) Anticancer activity is a potential use even for the crude extract. The bioassay results for the lethality of brine shrimp (BST), the inhibition of crown gall tumors on potato discs (PD), the reversal in morphology of db-cAMP induced AC glioma cells from that of mature, differentiated astrocytes to that of immature AC glioma cells (mouse brain cells) (9ASK), the dose that inhibits cell growth to one-half that of untreated poorly differentiated human epidermic carcinoma (9KB), the dose that inhibits cell growth to one-half that of a methylcholanthrene-induced lymphoid neoplasm in a DBA/2 mouse (9PS), and the percent displacement in a protein kinase C test for initial extract fractions are shown in Table 1. Obviously, the bioactivity is concentrated in F005.

In data set [5] the test system is 9KB (human nasopharyngeal carcinoma). Briefly: 9KB cytotoxicity. Format: cell-based. On the procedure: (§2) Occasional checks in the potato disc (PD) assay assured us that antitumor activity was present [Ferrigni et al., J. Nat. Prod., 45; 679-686 (1982)]. Cytotoxicity tests were performed at the Purdue Cell Culture Laboratory, Purdue Cancer Center, using standard protocols for 9KB (human nasopharyngeal carcinoma) and 9PS (a chemically-induced murine lymphocytic leukemia) [Suffness et al., Methods In Cancer Research. Vol. 16: 73 (1979), V. T. DeVita, Jr. and H. Busch eds., Academic Press, New York], 9ASK (astrocytoma reversal) [Lgarashi et al., Cell Struct. and Funct., 3: 107 (1978)], A-549 (human lung carcinoma) [Giard et al., J. Nat. Cancer Inst., 51: 1417-1423 (1973)], and HT-29 (human colon adenocarcinoma) [Fogh J. (ed.), Human Tumor Cells, In Vitro, Plenum Press, New York: 115-159 (1975)].
as §1

In data set [6] the test system is 9PS (murine lymphocytic leukemia). Briefly: 9PS cytotoxicity. Format: cell-based. To be noted: Mus musculus; read-out: 9PS ED50. The method, then:
as §2, §1

Data set [7] deals with A-549 (human lung carcinoma). Briefly: A-549 cytotoxicity. Format: cell-based. The note with it: A549, read-out: A549 ED50. The method, then: as §2
(§3) These two compounds are the most bioactive acetogenins reported to this date. But the safety range for treatments might be larger. In this table, two cytotoxicity tests against human tumor cell lines such as the human lung carcinoma (A-549) [Giard et al., J. Nat. Cancer Inst. 51: 1417-1423 (1973)] and the human colon adenocarcinoma (HT-29) [Fogh, J. (ed.) Human Tumor Cells, In Vitro, pp. 115-159, Plenum Press, New York (1975)] have been performed. […] The mode of action for the acetogenins is still unknown, but it is postulated to involve cell membranes.

The test system of data set [8] is HT-29 (human colon adenocarcinoma). The experiment in a line: HT-29 cytotoxicity. Format: cell-based. The note with it: HT-29, read-out: HT29 ED50. On the procedure: as §2, §3
In a further data set the test system is human tumor cell lines. Briefly: selectivity of cytotoxicity between human tumor cell lines A-549 and HT-29. Format: cell-based. The note with it: compared with bullatacin; A-549 vs HT-29.
Text: as §3

The test system of a further data set is indicator organisms. The experiment in a line: pesticidal bioassays, overall. The note with it: in vivo. On the procedure:
Pesticidal bioassays were conducted at Eli Lilly Laboratories (Greenfield, Ind.) following standard procedures with eight indicator organisms: mosquito larvae (ML) Aedes aegypti (in the media), blowfly larvae (BFL) (1% in the diet), corn root worm (CRW) Diabrotics undecimcuntata howardii (in soil), two-spotted spider mite (2SSM) Tetranychus urticae (on foliage), southern army worm (SAW) Spodoptera eridania (on foliage), melon aphid (MA) (5000 ppm on foliage), cotton aphid (CA) Aphis gossypii, (on foliage) and Haemonchus contortus (HC) (a nematode, 0.1% in the media).
The compounds can be formulated at concentrations of about 1 to about 200 ppm in conventional liquid or solid forms for application to pest infected areas.

Data set [9] deals with P-388 (PS) lymphocytic leukemia. The note with it: cited from earlier work.
Data set [10] concerns P-388 lymphocytic leukemia. To be noted: cited from earlier work.
For a further data set, the system named is PS. To be noted: cited from earlier work.

In brackets after ≈: the same amount, converted by molar mass. Where two headings read alike, the source gives them in different places.

With `CCCCCCCCCCC(O)C1CCC(C2CCC(C(O)CCCCCCCCCCC(O)CC3=CC(C)OC3=O)O2)O1` (stereo not shown) [Asimicin], in the data set with 3PS lymphocytic leukemia, the “% T/C” value is 124 % T/C. In data set [1], the “9KB ED50” value is < 10^-5 μg/ml. For the same molecule, in data set [2], the “9PS ED50” value is reported as < 10^-7 μg/ml. Besides, the pesticidal activity result with stripped cucumber beetle, in the data set on Mexican bean beetle, in the data set with mosquito larvae, in the data set on blow fly larvae, with melon aphid and with two spotted spider mites was “Promising pesticidal activity” each time. In addition, the pesticidal activity result in data set [3] is “Promising pesticidal activity”. For the same molecule, the “toxic to mice at” value in the data set with mice is 6.25 mg/kg.

As a reminder, the LC50 is the concentration lethal to half of the exposed cells or organisms. For the molecule `CCCCCCCCCC[C@H](OC(C)=O)[C@H]1CC[C@H]([C@H]2CC[C@H]([C@@H](CCCCCCCCCC[C@H](CC3=C[C@H](C)OC3=O)OC(C)=O)OC(C)=O)O2)O1` [Bullatacin triacetate], in [4], the LC50 was determined as 5.7 µg/mL. In addition, the “9KB ED50” value in [5] was found to be 6.85e-07 µg/mL. In addition, the IC50 in data set [6] is 0.00389 µg/mL; in data set [7], 2 ng/mL; in data set [8] it was over 100 ng/mL.

For `CCCCCCCCCC[C@H](OC(C)=O)[C@H]1CC[C@H]([C@H]2CC[C@H]([C@@H](CCCCCCCCCC[C@@H]3C[C@@H](CC(C)=O)C(=O)O3)OC(C)=O)O2)O1` [Bullatacinone diacetate], the LC50 in data set [4] is over 10 µg/mL. Besides, the “9KB ED50” value in [5] was determined as 5000 µg/mL. The IC50 in [6] is 0.0422 µg/mL; in data set [7] it was 28 ng/mL; in data set [8] it was 100 ng/mL.

For `CCCCCCCCCC[C@H](O)[C@H]1CC[C@H]([C@H]2CC[C@H]([C@H](O)CCCCCCCCCCC3CC(CC(C)=O)C(=O)O3)O2)O1` (stereo partly shown) [Bullatacinone], in data set [4], the LC50 was 0.003 µg/mL (≈ 4.82 nM). For the same molecule, the “9KB ED50” value in data set [5] is recorded as < 10^-12 mcg/ml. The IC50 in [6] came out at 0.00423 µg/mL (≈ 6.79 nM); in data set [7], 1 ng/mL (≈ 1.61 nM). Further, in the data set with human tumor cell lines, the selectivity of cytotoxicities entry is “more selective cytotoxicities than bullatacin”. For the same molecule, the “pesticidal activity” value with indicator organisms is on record as “lack of pesticidal activity”.

Consider `CCCCCCCCCC[C@H](O)[C@H]1CC[C@H]([C@H]2CC[C@H]([C@H](O)CCCCCCCCCC[C@@H](O)CC3C[C@H](C)OC3=O)O2)O1` (stereo partly shown) [Dihydro-bullatacin], for which, in data set [4], the LC50 is 0.0145 µg/mL (≈ 23.2 nM). The IC50 in [7] is under 0.001 ng/mL; in data set [8], 0.0333 ng/mL (≈ 0.0533 nM).

Take `CCCCCCCCCC[C@H](OC(C)=O)[C@H]1CC[C@H]([C@H]2CC[C@H]([C@H](O)CCCCCCCCCCCCC3=C[C@H](C)OC3=O)O2)O1` [Uvaricin]: in data set [9], the “activity in vivo against P-388 lymphocytic leukemia in mice” value is on record as “demonstrated activity in vivo”.

As for `CCCCCCC(O)CCCC(O)C1CCC(C2CCC(C(O)CCCCCCCCCCCCC3=CC(C)OC3=O)O2)O1` (stereo not shown) [isorollinicin], the “in vitro cytotoxicity against P-388” value in data set [10] is on record as “in vitro cytotoxicity”.

Regarding `CCCCCCCCCCC(O)C1CCC(C2CCC(C(O)CCCCCCCCCCC(O)CC3=CC(C)OC3=O)O2)O1` (stereo not shown) [rolliniastatin], in the data set with PS, the life extension is 28%.

As to `CCCCCCCCC[C@@H](O)[C@@H](O)[C@@H]1CC[C@@H]([C@@H]2CC[C@@H]([C@@H](O)CCCCCCCCCCCCC3=CC(C)OC3=O)O2)O1` (stereo partly shown) [rollinicin], the “in vitro cytotoxicity against P-388” value in data set [10] is “in vitro cytotoxicity”.
